Test results taken from patent publication US20080051438A1, “Preventive/Therapeutic Compositions Useful for Treating Cardiovascular Diseases” (priority 2006, published 2008).
Values joined by “and” are separate entries in the source; they are usually repeats but may differ in a detail not shown here. Identical values can stand only once. Marks after values point to notes of the source that are not given here.

Columns and labels:
Assay type in all cases: in vivo, human
hypertensive patients [1] = test: Special investigation of combined use of cilnidipine and ARB: degree of the blood pressure controls judged by the doctor (efficacy ratio); parameters: concentration or dose not given beside the values
Description: (§1) A special investigation was conducted in various medical centers, compiled, and analyzed to evaluate the safety and availability of the combined use of cilnidipine and at least one angiotensin II receptor blocker.
(§2) The subjects of the investigation were hypertensive patients which were adapted to cilnidipine. Combined administration of cilnidipine and ARB was started for the treatment of hypertension in these patients.
(§3) A prospective continuous investigation method was conducted. Such a method is continuously conducted with the registered cases with the combined administration of cilnidipine (Atelec®) and ARB, until the number of cases reaches the contracted cases for each center.
(§4) Regarding the administration method of cilnidipine, 5 to 10 mg of cilnidipine was orally administered after breakfast once a day. Meanwhile, the amount may increase or decrease depending on patient's age, symptoms, or the like. When the effect is insufficient, the amount can be increased to 20 mg once a day. The dosing period of cilnidipine was set to 12 weeks in principle.
(§5) The following items were tracked during the investigation: patient's background (sex), existence or nonexistence of previous therapeutic agents and the content thereof, targeted blood pressure (systolic BP/diastolic BP), the conditions of administration of cilnidipine and ARB, antihypertensives used in combination (those other than cilnidipine or ARB), clinical course (systolic BP/diastolic BP/heart rate), and occurrence of side-effects. As for the availability of the combined administration, in the 12th week after starting the combined administration, the doctor in attendance judged the degree of the blood pressure controls on a three-point scale of “well-controlled”, “nearly well-controlled” and “poorly-controlled”, referring to the changes in the systolic and diastolic BP. As for the safety and availability analysis for each patient background, Fisher's exact probability test or the X^2 test was used. As for the blood pressure and heart rate, the average value and the standard deviation were calculated for the subjects before the combined administration (within 4 weeks before starting the combined administration), and data after starting the combined administration were determined on each observation day, and analysis was conducted by using a paired t-test. The test was conducted as the two-sided test and less than 5% of the risk rate was regarded as significant. Furthermore, side-effects were compiled based on the naming of preferred terms (PT) of MedDRA/J ver 8.0.
As the index of availability, in the 12th week after starting the combined administration, the doctor in attendance judged the degree of the blood pressure controls on a three-point scale of “well-controlled”, “nearly well-controlled” and “poorly-controlled”.
(1) Among the 2919 cases in the availability analysis, 42 cases in which the degree of the blood pressure controls was not described, and 168 cases which could not be judged, were excluded. In the other 2709 cases, the ratio of number of cases judged as “nearly well-controlled” or higher was calculated as the efficacy ratio. Accordingly, the efficacy ratio of the subject cases in the availability analysis was 84.8% (2298 cases/2709 cases).

hypertensive patients [2] = test: Special investigation of combined use of cilnidipine and ARB: changes in systolic and diastolic blood pressure; conditions: only ARB, then cilnidipine singularly added; last measurement (222.03±143.88 days)
hypertensive patients [3] = test: as above; conditions: for diastolic BP, aft. / systolic BP, aft. / diastolic BP, bef. / systolic BP, bef.: all availability cases; for diastolic BP, bef. use / systolic BP, bef. use / diastolic BP, aft. use / systolic BP, aft. use: only ARB
Description: as §1, §2, §3, §4, §5
Table 7 and FIG. 2 show the number of cases for which the blood pressure was measured, and the changes in the measured values of systolic BP, diastolic BP, and heart rate were measured at the following time points: before starting the combined administration, 4 weeks, 8 weeks, and 12 weeks after starting the combined administration, and the last measurement, […] administration, n=2919). […] Then, it continued to slowly decrease, and the a stable change was seen up to 12 weeks after the start.

hypertensive patients [4] = test: Special investigation of combined use of cilnidipine and ARB: occurrence of side-effects (safety analysis); conditions: for side-effect number of cases / side-effect number of examples: cilnidipine and ARB; for side-effect occurence rate (%): combined administration of cilnidipine and ARB
Description: as §1
The investigation was conducted mainly in the departments of internal medicine/cardiovascular diseases of various medical institutions. The target of the estimated collected cases was about 3000 cases.
as §2, §3, §4, §5
The ratios of the cases wherein side-effects occurred were compared and examined between the sexes in the 2920 cases of the safety analysis (Table 5). […] The ratio thereof in a female group was 3.2% and that in a male group was 1.8%. […] The side-effects observed were mainly subjective symptoms such as headache, palpitation, and free-floating dizziness. Meanwhile, the ratio of the cases wherein the side-effects of these subjective symptoms occurred was low, and it is not a serious side-effect caused by the combined administration.

[5] = cilnidipine + ARB, 4 wks after use
[6] = cilnidipine + ARB, 8 wks after use
[7] = cilnidipine + ARB, 12 wks after use
[8] = cilnidipine + ARB, before combined use, 2,586 cases
[9] = cilnidipine + ARB, last measurement (222.43 days in average)
[10] = value before combined use of the 840 cases measured at 8 wks
[11] = value before combined use of the 950 cases measured at 12 wks
[12] = value before combined use of the 1,131 cases measured at 4 wks
[13] = value before combined use of the 2,565 cases with last measurement
[14] = then cilnidipine added, value before combined use of the 338 cases measured at 8 wks
[15] = then cilnidipine added, value before combined use of the 360 cases measured at 12 wks
[16] = then cilnidipine added, value before combined use of the 453 cases measured at 4 wks
[17] = then cilnidipine added, value before combined use of the 1,047 cases with last measurement
[18] = then cilnidipine singularly added, 4 wks after the use
[19] = then cilnidipine singularly added, 8 wks after the use
[20] = then cilnidipine singularly added, 12 wks after the use
[21] = then cilnidipine singularly added, before combined use, 1,055 cases

COCCOC(=O)C1=C(C)NC(C)=C(C(=O)OC/C=C/c2ccccc2)C1c1cccc([N+](=O)[O-])c1 (racemic) [cilnidipine, 2-methoxyethyl-3-phenyl-2(E)-propenyl(±)-1,4-dihydro-2,6-dimethyl-4-(3-nitrophenyl)-3,5-pyridinedicarboxylate]
efficacy ratio (cases judged nearly well-controlled or higher) (hypertensive patients [1]; all subject cases in the availability analysis, 12th week after starting cilnidipine + ARB, 2298 cases/2709 cases): 84.8%
efficacy ratio (cases judged nearly well-controlled or higher) (hypertensive patients [1]; cases on ARB alone, cilnidipine additionally administered (antihypertensives ARB and cilnidipine only)): 86.4%
systolic BP, aft. use (hypertensive patients [2]): 139.73 ± 15.77^b mmHg
diastolic BP, aft. (hypertensive patients [3]; [5]): 80.44 ± 11.30 mmHg
systolic BP, aft. (hypertensive patients [3]; [5]): 144.31 ± 16.64 mmHg
diastolic BP, aft. (hypertensive patients [3]; [6]): 78.69 ± 10.99 mmHg
systolic BP, aft. (hypertensive patients [3]; [6]): 142.28 ± 17.41 mmHg
diastolic BP, aft. (hypertensive patients [3]; [7]): 78.64 ± 11.39 mmHg
systolic BP, aft. (hypertensive patients [3]; [7]): 140.57 ± 16.45 mmHg
diastolic BP, bef. (hypertensive patients [3]; [8]): 89.49 ± 13.09 mmHg
systolic BP, bef. (hypertensive patients [3]; [8]): 162.21 ± 19.21 mmHg
diastolic BP, aft. (hypertensive patients [3]; [9]): 78.78 ± 10.68 mmHg
systolic BP, aft. (hypertensive patients [3]; [9]): 139.67 ± 16.47 mmHg
diastolic BP, bef. (hypertensive patients [3]; [10]): 88.22 ± 13.53 mmHg
systolic BP, bef. (hypertensive patients [3]; [10]): 161.13 ± 18.47 mmHg
diastolic BP, bef. (hypertensive patients [3]; [11]): 88.56 ± 13.48 mmHg
systolic BP, bef. (hypertensive patients [3]; [11]): 161.63 ± 18.58 mmHg
diastolic BP, bef. (hypertensive patients [3]; [12]): 88.80 ± 12.94 mmHg
systolic BP, bef. (hypertensive patients [3]; [12]): 161.96 ± 19.46 mmHg
diastolic BP, bef. (hypertensive patients [3]; [13]): 89.51 ± 13.09 mmHg
systolic BP, bef. (hypertensive patients [3]; [13]): 162.19 ± 19.11 mmHg
diastolic BP, bef. use (hypertensive patients [3]; [14]): 90.63 ± 13.13 mmHg
systolic BP, bef. use (hypertensive patients [3]; [14]): 162.45 ± 16.04 mmHg
diastolic BP, bef. use (hypertensive patients [3]; [15]): 90.26 ± 12.40 mmHg
systolic BP, bef. use (hypertensive patients [3]; [15]): 161.92 ± 15.66 mmHg
diastolic BP, bef. use (hypertensive patients [3]; [16]): 90.72 ± 12.00 mmHg
systolic BP, bef. use (hypertensive patients [3]; [16]): 163.61 ± 15.91 mmHg
diastolic BP, bef. use (hypertensive patients [3]; [17]): 91.31 ± 11.47 mmHg
systolic BP, bef. use (hypertensive patients [3]; [17]): 163.11 ± 16.40 mmHg
diastolic BP, aft. use (hypertensive patients [3]; [18]): 81.47 ± 10.51^b mmHg
systolic BP, aft. use (hypertensive patients [3]; [18]): 143.91 ± 15.39^b mmHg
diastolic BP, aft. use (hypertensive patients [3]; [19]): 79.75 ± 10.37^b mmHg
systolic BP, aft. use (hypertensive patients [3]; [19]): 140.97 ± 15.94^b mmHg
diastolic BP, aft. use (hypertensive patients [3]; [20]): 79.71 ± 11.23^b mmHg
systolic BP, aft. use (hypertensive patients [3]; [20]): 140.09 ± 15.37^b mmHg
diastolic BP, bef. use (hypertensive patients [3]; [21]): 91.26 ± 11.48 mmHg
systolic BP, bef. use (hypertensive patients [3]; [21]): 163.09 ± 16.36 mmHg
diastolic BP, aft. use (hypertensive patients [3]; then cilnidipine singularly added, last measurement (222.03±143.88 days)): 79.68 ± 10.68^b mmHg
ratio of the cases wherein side-effects occurred (hypertensive patients [4]; cases on ARB alone to which cilnidipine was additionally administered): low
side-effect number of cases (hypertensive patients [4]; female group, 1,481 cases): 56
side-effect number of examples (hypertensive patients [4]; female group, 1,481 cases): 47
side-effect occurence rate (%) (hypertensive patients [4]; female group, 1,481 cases): 3.2% and 3.17%
side-effect number of cases (hypertensive patients [4]; male group, 1,416 cases): 32
side-effect number of examples (hypertensive patients [4]; male group, 1,416 cases): 26
side-effect occurence rate (%) (hypertensive patients [4]; male group, 1,416 cases): 1.8% and 1.84%
side-effect number of cases (hypertensive patients [4]; sex unknown, 23 cases): 0
side-effect number of examples (hypertensive patients [4]; sex unknown, 23 cases): 0
side-effect occurence rate (%) (hypertensive patients [4]; sex unknown, 23 cases): 0%
